Assay results: PubChem BioAssay (NCI)
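Where inhibition never reached the appropriate level, the endpoint shown equals the highest concentration tested. Otherwise, values were interpolated linearly from a five-concentration, 48-hour dose response in 96-well plates. At the GI50, growth is halved. Definition used: TGI = concentration required for complete inhibition of growth.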

Experiments:
Experiment in all cases: NCI-60 cell line screen, 48 h
SF-539 CNS = system: SF-539 CNS
HT29 colon = system: HT29 colon
NCI-H522 lung = system: NCI-H522 lung
TK-10 renal = system: TK-10 renal
786-0 renal = system: 786-0 renal
NCI-H226 lung = system: NCI-H226 lung
HOP-62 NSCLC = system: HOP-62 NSCLC
CAKI-1 renal = system: CAKI-1 renal
A498 renal = system: A498 renal
BT-549 breast = system: BT-549 breast

SMILES | TGI (SF-539 CNS) | TGI (HT29 colon) | TGI (NCI-H522 lung) | TGI (TK-10 renal) | TGI (786-0 renal) | TGI (NCI-H226 lung) | TGI (HOP-62 NSCLC) | TGI (CAKI-1 renal) | TGI (A498 renal) | GI50 (SF-539 CNS) | GI50 (HT29 colon) | GI50 (NCI-H522 lung) | GI50 (TK-10 renal) | GI50 (786-0 renal) | GI50 (NCI-H226 lung) | GI50 (HOP-62 NSCLC) | GI50 (CAKI-1 renal) | GI50 (A498 renal) | GI50 (BT-549 breast) | TGI (BT-549 breast)
Cc1cc([N+](=O)[O-])c(S(=O)(=O)c2ccccc2)c([N+](=O)[O-])c1 | 32.6 µM | 19.1 µM | 3.14 µM | 32.4 µM | 12.3 µM | 41.9 µM | 40 µM | 10.3 µM | 35.6 µM |  |  |  |  |  |  |  |  |  |  | 
COc1cc(O)c(C(C)=O)c(O)c1 | > 100 µM | > 100 µM | > 100 µM | > 100 µM | > 100 µM |  | > 100 µM |  | > 100 µM |  |  |  |  |  |  |  |  |  |  | 
Fc1cc(-c2nnc3n2N=C(c2ccc(Cl)cc2Cl)CS3)c(Cl)cc1Cl | > 100 µM | > 100 µM | > 100 µM | > 100 µM | > 100 µM | > 100 µM | > 100 µM | > 100 µM |  | 39.2 µM | 40.5 µM | 50.8 µM | 77.3 µM | 47.1 µM | 36.5 µM | 44.2 µM | 35.9 µM |  |  | 
NS(=O)(=O)c1ccc(NC(=O)c2cccn3c(=O)c4ccccc4nc23)cc1 | > 100 µM | > 100 µM | > 100 µM | > 100 µM | > 100 µM | > 100 µM | > 100 µM | > 100 µM | > 100 µM |  |  |  |  |  |  |  |  |  |  | 
C/C(=N\n1c(N)c(C#N)c(-c2ccc(Cl)cc2)c(C#N)c1=O)c1ccncc1 |  | > 100 µM |  | 38.9 µM | 34 µM | 54.5 µM | 48.8 µM | > 100 µM |  |  | > 100 µM |  | 6.04 µM | 6.95 µM | 18.5 µM | 16.9 µM | 16.7 µM |  |  | 
C=CC1=CC(C)C[C@]1(O)C(=O)OC (some centres not stated) | > 100 µM |  | > 100 µM |  |  |  |  |  |  |  | > 100 µM |  | > 100 µM | > 100 µM | > 100 µM | > 100 µM | > 100 µM | > 100 µM |  | 
COC(=O)c1cc2c3c(ccc2[nH]1)N(C(=O)c1cc2c4c(ccc2[nH]1)N(C(=O)c1cc2c5c(ccc2[nH]1)N(C(N)=O)CC5)CC4)CC3 | > 34.8 µM | > 100 µM |  | 47 µM | > 31.9 µM | 5.76 µM | 7.83 µM | 8.95 µM | 4.4 µM |  |  |  |  |  |  |  |  |  |  | 
CCCCCCCCCC(=O)Oc1cccc2onc(C)c12 | > 100 µM | > 100 µM | > 100 µM | > 100 µM | > 100 µM | > 100 µM | > 100 µM | > 100 µM |  |  |  |  |  |  |  |  |  |  |  | 
CC[P+]1(CC)CCCC1 | > 100 µM | > 100 µM |  | > 100 µM | > 100 µM |  | > 100 µM | > 100 µM |  |  |  |  |  |  |  |  |  |  |  | 
CC1(C)OC(COCCOCCCCCO)C(COCCOCCCCCO)O1 (configuration not stated) |  | > 100 µM | > 100 µM | > 100 µM | > 100 µM | > 100 µM | > 100 µM | > 100 µM | > 100 µM |  |  |  |  |  |  |  |  |  |  | 
COc1ccc(-c2nc3c(c(=O)n2C(C)=O)C(c2ccc(Cl)cc2)c2sc4c(Cl)cccc4c2O3)cc1 (configuration not stated) | 0.84 µM | 1.09 µM | 1.48 µM | 2.67 µM | 1.63 µM | 2.24 µM | 1.96 µM | 4.16 µM |  | 0.259 µM | 0.325 µM | 0.259 µM | 0.846 µM | 0.43 µM | 0.329 µM | 0.275 µM | 0.49 µM |  | 0.355 µM | 2.07 µM
c1ccc(OCCSCCCCCCCCCCSCCOc2ccccc2)cc1 | > 100 µM |  | > 100 µM | > 100 µM | > 100 µM | > 100 µM | > 100 µM |  | > 100 µM |  |  |  |  |  |  |  |  |  |  | 
CC1=C(C(=O)CC(=O)C(=O)NC2C3CC4CC(C3)CC2C4)Sc2ccccc2N1 (configuration not stated) | > 100 µM | > 100 µM | > 100 µM | > 100 µM | > 100 µM |  | > 100 µM | > 100 µM | > 100 µM |  |  |  |  |  |  |  |  |  |  | 
COC(=O)C1(F)C(=O)NC(=O)NC1OC (configuration not stated) | > 100 µM | > 100 µM | > 100 µM | > 100 µM | > 100 µM | > 100 µM | > 100 µM | > 100 µM | > 100 µM |  |  |  |  |  |  |  |  |  |  | 
O=C(O)[C@@H]1CCCC[C@@H]1C(=O)N(C1CCCCC1)C1CCCCC1 | > 100 µM | > 100 µM | > 100 µM | > 100 µM | > 100 µM | > 100 µM | > 100 µM | > 100 µM | > 100 µM |  |  |  |  |  |  |  |  |  |  | 
CCOC1=C2NC(Cc3ccc(F)cc3)=NC2C(=O)c2ccccc21 (configuration not stated) | 36 µM | 58.7 µM | 46.1 µM | > 100 µM | 47.8 µM |  | > 100 µM |  | 87.9 µM |  |  |  |  |  |  |  |  |  |  | 
C/C(=N/O)c1ccc2c(c1)C(=NO)c1cc(/C(C)=N/O)ccc1-2 | 31.4 µM | 30 µM | 53.3 µM |  | 42.3 µM | 26.8 µM | 28.3 µM | > 100 µM |  |  |  |  |  |  |  |  |  |  |  | 
